Assay results reported in patent publication US9475765B2, “Polymorphs of N- (2 -methoxybenzoyl) -4- [ (methylaminocarbonyl) amino] benzenesulfonamide” (Syngenta Limited, priority 2012, dated 2016).

Assay: Stability of polymorphs: slurry of Form 1, Form 2 and Form 3 in ethanol, crystal form examined by powder X-ray diffraction
Assay type: physicochemical
Description: Powder X-ray diffraction analysis of solid material was carried out using the Briker D8 powder diffractometer. Samples were mounted in Perspex sample holders and the samples flattened. The sample holder was rotated and X-rays were collected from 4° to 34° 2-theta, with a scan time of 25 to 30 minutes depending on the pattern intensity. Approximately 0.1 g each of Form 1, Form 2 and Form 3 were added to 10 ml of ethanol at 50° C. and 60° C. until there were solids out of solution (a slurry). The temperature was maintained with stirring and the crystal form examined after 2 and 8 days.

[1] = about 0.1 g each of Form 1, Form 2 and Form 3 in 10 ml ethanol, stirred slurry at 50° C. and 60° C.

CNC(=O)Nc1ccc(S(=O)(=O)NC(=O)c2ccccc2OC)cc1 [Form 1, N-(2-methoxybenzoyl)-4-[(methylaminocarbonyl)amino]benzenesulfonamide]
crystal form present in slurry after 2 days [1]: no evidence of Form 1

CNC(=O)Nc1ccc(S(=O)(=O)NC(=O)c2ccccc2OC)cc1 [Form 2, N-(2-methoxybenzoyl)-4-[(methylaminocarbonyl)amino]benzenesulfonamide]
crystal form present in slurry after 8 days (about 0.1 g each of Form 1, Form 2 and Form 3 in 10 ml ethanol, stirred slurry at 50° C. and 60° C., 8 days in total): complete conversion to Form 2
crystal form present in slurry after 2 days [1]: still present
stability relative to the other polymorphs (general statement in the description, Form 2 compared with Form 1 and Form 3): stable polymorph

CNC(=O)Nc1ccc(S(=O)(=O)NC(=O)c2ccccc2OC)cc1 [Form 3, N-(2-methoxybenzoyl)-4-[(methylaminocarbonyl)amino]benzenesulfonamide]
crystal form present in slurry after 2 days [1]: still present
